{
  "source": "patent US8883964B2",
  "about": "“Compositions comprising modified collagen and uses therefor” (The Johns Hopkins University, priority 2004, dated 2014)",
  "key": {"[1]": {"test_system": "breast epithelial cells (MCF-7)", "assay": "Cell adhesion study on treated collagen film, breast epithelial cells", "assay_type": "cell-based, human", "settings": "for invasion of treated films by fibroblasts or epithelial cells: summary statement", "procedure": "(§1) The melting temperature of 5 was determined to be 29° C. which is 7° C. lower than the melting temperature of (ProHypGly)7 (SEQ ID NO: 40) (Table 1).^27 Here, the hydrophilic and bulky PEG group seems to destabilize the triple helix in water. A solution containing 5 at 45° C. was added to the collagen coated culture plate (prepared as above) and human fibroblasts or breast epithelial cells were seeded and incubated for three days at 37° C. […] In contrast, areas of collagen films treated with 5 are almost devoid of fibroblasts (FIG. 7B) and epithelial cells (FIG. 7C).\nFor applications where it is desirable to repel cell growth for prolonged periods (e.g., weeks or months), it is desirable to employ CMPs of increased length. In films that were treated with mPEG2000-Gly3-(Pro-Hyp-Gly)7 (SEQ ID NO: 6), cell growth extending into the treated area was observed after 3 days in culture (FIGS. 9A, 9B, and 9C). This might be due to the release of mPEG2000-Gly3-(Pro-Hyp-Gly)7 (SEQ ID NO: 6) from the PEG-CMP modified collagen film during incubation at 37° C.\n(Pro-Hyp-Gly)8-Gly3-PEG5000-OH (SEQ ID NO: 26) with lengthened CMP and PEG, was designed to prolong the anti-adhesive property of pegylated CMP modified collagen to cells. Its melting temperature is 38° C. in PBS solution. A delay in invasive cell growth was observed on areas of the collagen film treated with (Pro-Hyp-Gly)8-Gly3-PEG5000-OH (SEQ ID NO: 26) (FIGS. 10A and FIG. 10B). […] It can also be seen from the images that cells outside the treated area grow vertically before invading the treated area.\n(§2) To the collagen film (prepared as above) was added 10 μl of peptide 5 solution (2 mM in pH 7.4 potassium phosphate buffer). The film was allowed to dry and excess materials were removed by washing with potassium phosphate buffer (pH 7.4, 50 mM) and culture medium (DMEM or IMDM). Cells were added to the culture well and incubated at room temperature for 30 minutes. Human fibroblasts (CRL-1502) were seeded at 4.5×10^5 cell/ml cell density in DMEM and breast epithelial cells (MCF-7) at 5.6×10^5 cells/ml density in cell culture media (IMDM). The nonattached cells were removed by rinsing the well three times with growth medium and PBS buffer. The remaining cells were incubated at 37° C. (5% CO2) for three days. The growth medium was exchanged after 48 hours."}, "[2]": {"assay": "Circular dichroism thermal melting (triple helix transition temperature)", "assay_type": "physicochemical", "settings": "in PBS solution"}, "[3]": {"assay": "Circular dichroism thermal melting (triple helix transition temperature)", "assay_type": "physicochemical", "settings": "for Tm (transition temperature determined by circular dichroism spectroscopy): measured in 57.5 μM acetic acid solution", "procedure": "Circular dichroism (CD) spectra were recorded on JASCO 710 spectrometer equipped with JASCO PTC-348 WI temperature controller and Hellma cell (400 μL, 0.1 mm pathlength). The thermal melting curves were obtained by measuring the molar ellipticity at 225 nm with 1° C./min heating rate. All samples (57 μM in 50 mM acetic acid) were stored at 4° C. for 24 hours before the CD measurement.\nThe thermal melting curves were obtained by measuring the ellipticity of peptide in deionized (DI) water (0.5˜2 mM) at 225 nm with 0.1° C./min heating rate. All samples were stored at 4° C. for 24 hours before the measurement. (FIG. 15)\nTriple-helical conformation of the CMP was confirmed by circular dichroism (CD) spectroscopy. Peptide samples (250 or 500 μM) were prepared in distilled water and incubated at 4° C. overnight before the CD measurement. CD was recorded between 180 and 280 nm on a JASCO'710 CD spectrometer at various temperatures under a nitrogen flow. Each measurement had static equilibrium time of 30 minutes."}, "[4]": {"biological_target": "T1, Collagen (type I, bovine) film (Bos taurus, UniProt P02453+P02465)", "T1 construct": "natural collagen (acid soluble, bovine type I); purchased Sigma", "T1 sequence (P02453 162-1217 limits assumed)": "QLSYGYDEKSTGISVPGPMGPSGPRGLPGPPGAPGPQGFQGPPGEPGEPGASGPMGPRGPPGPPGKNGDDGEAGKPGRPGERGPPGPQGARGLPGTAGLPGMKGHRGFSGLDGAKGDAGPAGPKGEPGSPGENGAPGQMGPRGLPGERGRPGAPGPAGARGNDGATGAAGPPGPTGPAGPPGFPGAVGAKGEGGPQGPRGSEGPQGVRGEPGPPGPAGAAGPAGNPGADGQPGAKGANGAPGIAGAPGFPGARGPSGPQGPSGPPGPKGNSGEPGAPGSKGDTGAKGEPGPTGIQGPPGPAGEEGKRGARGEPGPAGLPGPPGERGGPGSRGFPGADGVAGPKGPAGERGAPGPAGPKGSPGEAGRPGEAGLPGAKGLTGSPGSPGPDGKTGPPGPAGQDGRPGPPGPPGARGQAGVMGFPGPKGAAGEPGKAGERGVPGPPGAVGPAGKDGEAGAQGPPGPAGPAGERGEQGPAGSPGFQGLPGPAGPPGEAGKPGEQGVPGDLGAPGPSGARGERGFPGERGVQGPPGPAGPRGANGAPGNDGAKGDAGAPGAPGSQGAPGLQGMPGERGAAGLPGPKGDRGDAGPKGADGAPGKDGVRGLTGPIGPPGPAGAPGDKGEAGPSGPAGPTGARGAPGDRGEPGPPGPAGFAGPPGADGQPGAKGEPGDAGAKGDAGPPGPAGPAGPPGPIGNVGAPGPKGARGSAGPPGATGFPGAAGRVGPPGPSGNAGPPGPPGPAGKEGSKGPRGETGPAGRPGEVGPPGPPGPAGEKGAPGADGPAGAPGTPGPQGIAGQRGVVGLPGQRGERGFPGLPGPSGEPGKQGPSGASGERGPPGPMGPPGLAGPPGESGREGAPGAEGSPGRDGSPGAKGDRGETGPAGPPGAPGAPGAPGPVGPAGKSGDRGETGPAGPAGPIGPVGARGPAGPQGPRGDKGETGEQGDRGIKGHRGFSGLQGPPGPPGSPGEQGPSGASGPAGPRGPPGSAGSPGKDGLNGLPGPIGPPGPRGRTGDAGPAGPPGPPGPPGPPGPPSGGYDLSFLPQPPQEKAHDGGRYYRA", "T1 sequence (P02465 80-1117 limits assumed)": "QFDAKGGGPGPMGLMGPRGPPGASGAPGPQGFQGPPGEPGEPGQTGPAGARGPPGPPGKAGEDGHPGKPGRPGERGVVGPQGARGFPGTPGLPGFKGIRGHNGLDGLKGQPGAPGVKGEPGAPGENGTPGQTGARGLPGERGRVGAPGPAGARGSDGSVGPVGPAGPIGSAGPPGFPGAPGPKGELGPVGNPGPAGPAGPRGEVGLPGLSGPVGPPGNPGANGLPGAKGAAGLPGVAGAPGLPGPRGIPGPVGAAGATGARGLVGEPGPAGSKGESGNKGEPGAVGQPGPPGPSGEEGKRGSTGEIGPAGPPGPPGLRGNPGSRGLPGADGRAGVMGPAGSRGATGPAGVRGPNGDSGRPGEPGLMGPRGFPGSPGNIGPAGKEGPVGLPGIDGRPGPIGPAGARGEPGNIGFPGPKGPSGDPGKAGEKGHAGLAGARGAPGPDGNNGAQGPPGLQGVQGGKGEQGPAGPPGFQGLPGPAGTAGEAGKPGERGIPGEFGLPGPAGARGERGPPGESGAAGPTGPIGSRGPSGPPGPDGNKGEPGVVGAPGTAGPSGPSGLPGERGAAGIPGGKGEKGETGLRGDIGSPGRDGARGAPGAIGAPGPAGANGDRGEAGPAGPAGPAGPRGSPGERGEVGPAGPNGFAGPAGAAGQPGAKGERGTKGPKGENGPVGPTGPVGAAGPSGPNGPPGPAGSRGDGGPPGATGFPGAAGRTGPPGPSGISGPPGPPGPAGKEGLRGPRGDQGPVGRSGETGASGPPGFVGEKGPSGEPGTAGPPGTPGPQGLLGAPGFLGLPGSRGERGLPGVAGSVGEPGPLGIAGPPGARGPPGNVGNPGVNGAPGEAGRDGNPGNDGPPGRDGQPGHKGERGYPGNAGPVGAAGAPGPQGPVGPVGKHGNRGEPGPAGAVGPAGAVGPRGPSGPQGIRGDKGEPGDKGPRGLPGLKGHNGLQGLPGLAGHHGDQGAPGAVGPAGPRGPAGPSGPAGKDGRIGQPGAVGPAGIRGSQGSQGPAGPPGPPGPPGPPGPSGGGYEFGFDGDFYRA", "assay": "Helical content estimation of the modified collagen films by CD", "procedure": "Collagen (type I, bovine) film was treated with either peptide 2 solution or blank buffer solution as described before. After 3 hr of incubation at room temperature, the wells were washed with 0.01 M potassium phosphate buffer solution (pH 7.4) and deionized water. All samples were dissolved in 50 mM acetic acid to a concentration of 1.80 μM or 3.60 μM and stored at 4° C. for 24 hours before the CD measurement. Average values of four independent experiments are reported (FIG. 4)."}, "[5]": {"biological_target": "T2, collagen films (type I, bovine) (Bos taurus, UniProt P02453+P02465)", "T2 construct": "natural collagen (acid soluble, bovine type I); purchased Sigma", "T2 sequence (P02453 162-1217 limits assumed)": "as the sequence (P02453 162-1217 limits assumed) above", "T2 sequence (P02465 80-1117 limits assumed)": "as the sequence (P02465 80-1117 limits assumed) above", "assay": "CMP-collagen film affinity study (fluorescence intensity of treated films)", "assay_type": "binding", "settings": "for affinity toward collagen film (fluorescence intensity): solution pre-equilibrated at 25° C. or 80° C., both conditions, 3 h at room temperature", "procedure": "The transition melting temperature of collagen film as determined by circular dichroism spectroscopy is shown at FIG. 4. To the collagen-coated cell culture wells (at room temperature) was added a solution of 2 which was pre-equilibrated at either 25° C. or 80° C. After three hours of incubation at room temperature, the collagen films were washed with buffer solution and observed by fluorescence microscope. As control samples, 5CF, fluorescein isothiocyanate-dextran (FITC-Dextran), and peptide 3 were used to treat collagen films under identical experimental conditions. […] Similar results were obtained when gelatin films were used as a substrate (FIG. 5A: Group c). In addition, the helical content of CMP treated collagen film was 3.5 times higher than that of the film treated with a blank solution (see support information).\nIn order to understand the effect of collagen film denaturation in the CMP binding process, a shorter CMP derivative was synthesized, peptide 4, with a melting temperature (25° C.) well below that of the collagen film. […] In addition, the modified collagen fiber retained its native banding texture when investigated by transmission electron microscopy (FIG. 6). Hotter solutions (60° C. and 80° C.) which denature the collagen film during the treatment produced collagen films with slightly higher CMP content (approximately 20% increase from that of the […] solution).\nTo each well of a 96-well culture plate was added 200 μl of saturated collagen (acid soluble, type I bovine) solution in 0.5 M acetic acid. The culture plate was air-dried to form transparent collagen films. The films were neutralized with 0.01 M potassium phosphate buffer (pH 7.4), and washed with distilled water. To the collagen-coated wells were added 40 μl of 0.01 M potassium phosphate solutions (pH 7.4) containing 50 μM of either CF (5-carboxyfluorescein), FITC-Dextran, and peptides 2, 3, or 4, which were pre-equilibrated at 25° C. or 80° C. After 3 hours of incubation at room temperature, the wells were washed with 0.01 M potassium phosphate buffer solution (pH 7.4) and observed by fluorescence microscope (Eclips ME 600, Nikon Corp). The total fluorescence intensity was acquired from the fluorescence micrographs using Meta Imaging Series V4.5, (Universal Imaging Corporation, Dowingtown Pa.). Average values of four independent experiments are reported."}, "[6]": {"biological_target": "T3, collagen film (Bos taurus, UniProt P02453+P02465)", "T3 construct": "natural collagen (acid soluble, bovine type I); purchased Sigma", "T3 sequence (P02453 162-1217 limits assumed)": "as the sequence (P02453 162-1217 limits assumed) above", "T3 sequence (P02465 80-1117 limits assumed)": "as the sequence (P02465 80-1117 limits assumed) above", "assay": "Release of fluorescence-labeled CMP derivatives from collagen films", "settings": "37° C., PBS solution pH 7.4", "source_text": "The release of fluorescence-labeled PEG-CMPs derivatives from collagen films is shown in (FIG. 11)."}, "[7]": {"settings": "comparison value; cited from earlier work"}, "[8]": {"test_system": "Human fibroblasts (CRL-1502)", "assay": "Cell adhesion study on treated collagen film, human fibroblasts", "assay_type": "cell-based", "settings": "three days at 37° C.", "procedure": "as §1, §2"}, "[9]": {"biological_target": "T4, collagen fibers (type I) (Bos taurus, UniProt P02453+P02465)", "T4 construct": "natural collagen (acid soluble, bovine type I); purchased Sigma", "T4 sequence (P02453 162-1217 limits assumed)": "as the sequence (P02453 162-1217 limits assumed) above", "T4 sequence (P02465 80-1117 limits assumed)": "as the sequence (P02465 80-1117 limits assumed) above", "assay": "TEM analysis of the modified collagen fibers", "design": "species or system bovine", "settings": "treatment at 30° C.", "procedure": "Collagen fibers were prepared by dialysis of collagen in 0.01M acetic acid solution against dilute NaCl solution. Peptide 4 in potassium phosphate buffer (400 μl, 500 μM, pH 7.4) was added to the collagen fibers in the PBS buffer (1 ml, 1 mg/ml, pH 7.4). The mixture was incubated for 3 hours and excess peptide 4 was removed by repeated centrifugation. The collagen fibers were resuspended in deionized water and transferred to a TEM grid. Uranyl acetate was used to stain the collagen fiber. (FIG. 6)"}, "[10]": {"settings": "solution pre-equilibrated at 80° C."}},
  "data": [
    {"compound": "(Pro-Hyp-Gly)8-Gly3-PEG5000-OH", "values": [
      {"measurement": "time for which the treated gel repelled extensive cell growth", "setting": "[1]", "value": "close to eleven days"},
      {"measurement": "cell invasion into treated areas of the collagen film", "setting": "[1]; after eleven days in culture", "value": "Extensive invasion"},
      {"measurement": "cell invasion into treated areas of the collagen film", "setting": "[1]; after five days in culture", "value": "little invasion"},
      {"measurement": "cell invasion into treated areas of the collagen film", "setting": "[1]; after nine days in culture", "value": "moderate invasion"},
      {"measurement": "invasion of treated films by fibroblasts or epithelial cells", "setting": "[1]", "value": "dramatically reduced invasion"},
      {"measurement": "melting temperature", "setting": "[2]", "value": 38, "unit": "°C"}
    ]},
    {"compound": "5CF-Gly3-(ProHypGly)10- [Compound 2]", "values": [
      {"measurement": "Tm (CD melting transition temperature)", "setting": "[3]; Cys-CMP derivatives, deionized water, ellipticity at 225 nm", "value": 21, "unit": "°C"},
      {"measurement": "Tm (transition temperature determined by circular dichroism spectroscopy)", "setting": "[3]", "value": 75, "unit": "°C"},
      {"measurement": "Tm (transition temperature determined by circular dichroism spectroscopy)", "setting": "[3]; listed as peptide 2", "value": 75, "unit": "°C"},
      {"measurement": "helical content of treated collagen film relative to film treated with blank solution", "setting": "[4]", "value": 3.5, "unit": "times"},
      {"measurement": "original helical content of collagen film retained after treatment", "setting": "[4]; [10]", "value": 80, "unit": "%"},
      {"measurement": "fluorescence of treated collagen film", "setting": "[5]; solution pre-equilibrated at 25° C.", "value": "negligible fluorescence"},
      {"measurement": "fluorescence of treated collagen film", "setting": "[5]; [10]", "value": "strong fluorescence"}
    ]},
    {"compound": "fluorescein isothiocyanate-dextran [FITC-Dextran, reference compound]", "values": [
      {"measurement": "affinity toward collagen film (fluorescence intensity)", "setting": "[5]", "value": "negligible affinity"}
    ]},
    {"compound": "FL-PEG2000-Gly3-(Pro-Hyp-Gly)7", "values": [
      {"measurement": "release from collagen film relative to 5CF-Gly3-(Pro-Hyp-Gly)8-Gly3-PEG5000-OH", "setting": "[6]", "value": "faster"}
    ]},
    {"compound": "(Pro-Hyp-Gly)7", "values": [
      {"measurement": "melting temperature of unmodified (Pro-Hyp-Gly)7 CMP", "setting": "[7]", "value": 37, "unit": "°C"}
    ]},
    {"compound": "-(ProHypGly)10- [Compound 1]", "values": [
      {"measurement": "Tm (transition temperature determined by circular dichroism spectroscopy)", "setting": "[3]", "value": 69, "unit": "°C"}
    ]},
    {"compound": "(ProHypGly)7-Tyr", "values": [
      {"measurement": "CD melting temperature (midpoint of CD melting curve)", "setting": "[3]; peptide in distilled water", "value": 38.5, "unit": "°C"}
    ]},
    {"compound": "mPEG2000-Gly3-(ProHypGly)7- [Compound 5]", "values": [
      {"measurement": "cell growth extending into the treated area observed after", "setting": "[1]; in culture at 37° C.", "value": 3, "unit": "days"},
      {"measurement": "invasion of treated films by fibroblasts or epithelial cells", "setting": "[1]", "value": "dramatically reduced invasion"},
      {"measurement": "epithelial cells on treated area of collagen film", "setting": "[1]; three days at 37° C.", "value": "almost devoid"},
      {"measurement": "melting temperature lower than that of (ProHypGly)7", "setting": "[3]; difference", "value": 7, "unit": "°C"},
      {"measurement": "Tm (transition temperature determined by circular dichroism spectroscopy)", "setting": "[3]", "value": 29, "unit": "°C"},
      {"measurement": "fibroblasts on treated area of collagen film", "setting": "[8]", "value": "almost devoid"}
    ]},
    {"compound": "5CF-Gly3-(ProHypGly)6- [Compound 4]", "values": [
      {"measurement": "Tm (transition temperature determined by circular dichroism spectroscopy)", "setting": "[3]", "value": 25, "unit": "°C"},
      {"measurement": "Tm (transition temperature determined by circular dichroism spectroscopy)", "setting": "[3]; listed as peptide 4", "value": 25, "unit": "°C"},
      {"measurement": "banding pattern of collagen fibers after treatment", "setting": "[9]", "value": "native banding pattern"},
      {"measurement": "increase in CMP content of collagen film from that of the 30° C. solution", "setting": "[5]; hotter solutions (60° C. and 80° C.)", "value": "approximately 20%"},
      {"measurement": "binding to collagen film", "setting": "[5]; solution at 10° C.", "value": "Little binding"},
      {"measurement": "increase in CMP attachment compared to the 10° C. solution", "setting": "[5]; solution pre-equilibrated at 30° C.", "value": "more than three-fold increase"}
    ]},
    {"compound": "O=C(O)c1ccc2c(c1)C(=O)OC21c2ccc(O)cc2Oc2cc(O)ccc21", "note": "[Compound 5CF, 5-carboxyfluorescein, reference compound]", "values": [
      {"measurement": "affinity toward collagen film (fluorescence intensity)", "setting": "[5]", "value": "negligible affinity"}
    ]},
    {"compound": "CH3O—(CH2—CH2—O)n—OH [mPEG2000, reference compound]", "values": [
      {"measurement": "fibroblasts on treated area of collagen film", "setting": "[8]", "value": "Homogenous distribution of fibroblasts"}
    ]}
  ]
}
